Laboratory results taken from US8497260B2, “2-arylbenzothiophene derivatives or pharmaceutically acceptable salts thereof, preparation method thereof, and pharmaceutical composition for the diagnosis or treatment of degenerative brain disease containing the same as active ingredient” (Industry-University Cooperation Foundation Sogang University, priority 2009, dated 2013).

Target: β-amyloid deposits
Assay: not given
Settings: values from cited documents; read-out: binding affinity (Ki); cited from earlier work

Question: For `[11CH3]Nc1ccc(-c2nc3ccc(O)cc3s2)cc1` [Control Group], which Ki is on record?
Answer: Its Ki is 2.8 nM.

Question: With `CC(=C(C#N)C#N)c1ccc2cc(N(C)CCF)ccc2c1` [[^18F]FDDNP] as the molecule, how does the Ki read?
Answer: Its Ki is 0.12 nM.

Question: For `CN(C)c1ccc(-c2cn3cc(I)ccc3n2)cc1` [[^123I/^125I]IMPY], which Ki is on record?
Answer: Its Ki is 15 nM.

Target: T1, β-amyloid (Aβ1-42) fibrils (Homo sapiens, UniProt P05067)
T1 construct: β-Amyloid peptide (Aβ1-42, 1 mg, Bachem); purchased Bachem
T1 sequence (P05067 672-713 limits assumed): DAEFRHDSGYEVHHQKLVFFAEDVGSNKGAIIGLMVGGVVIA
Assay: Inhibitory binding assay against [125I]TZDM on β-amyloid (Aβ1-42) fibrils
Settings: Aβ1-42 fibrils 10 nM, [125I]TZDM 0.05 nM, 10% ethanol, room temperature 3 hours, nonspecific binding with 2 μM ThT; read-out: Ki, relative binding affinity to [125I]TZDM (112)
Experimental: β-Amyloid peptide (Aβ1-42, 1 mg, Bachem) was completely dissolved in 1 mL of DMSO, 9 mL of phosphate buffered saline (PBS) (pH 7.4) was added thereto and well mixed. The resulting mixture was incubated at 37° C. for 60 minutes to form β-amyloid fibrils, 0.5 mL was taken and transferred to each e-tube and placed into a refrigerator maintained at −80° C.
To determine whether β-amyloid peptide was properly formed into β-amyloid fibrils, 150 μL of 5 μM Thioflavin T (ThT) was added to 50 μL of incubated β-amyloid fibrils, the fluorescence intensity of ThT binding specifically to β-amyloid fibrils at excitation/emission wavelengths (λex/λem), e.g., 450 nm/480 nm, was detected using a spectrometer.
0.850 mL of 10% Ethanol was placed into 12 mm×75 mm borosilicate test tubes, and 50 μL of β-amyloid (Aβ1-42) fibrils were added such that the final reaction concentration became 10 nM. […] Here, the nonspecific binding was performed using 2 μM Thioflavin T (ThT).

Question: With `COc1cccc2sc(-c3ccc([N+](=O)[O-])cc3)cc12` [Example 1, 2-(4-nitrophenyl)-4-methoxybenzothiophene] as the molecule, how does the Ki read?
Answer: The Ki was 0.73 nM.

Question: With `COc1ccc2cc(-c3cccc([N+](=O)[O-])c3)sc2c1` [Example 2, 2-(3-nitrophenyl)-6-methoxybenzothiophene] as the molecule, how does the Ki read?
Answer: The Ki was 0.65 nM.

Question: Which Ki does the source give for `COc1ccc2cc(-c3ccc([N+](=O)[O-])cc3)sc2c1` [Example 3, 2-(4-nitrophenyl)-6-methoxybenzothiophene] here?
Answer: The Ki was 2.3 nM.

Question: With `O=[N+]([O-])c1ccc(-c2cc3ccc(O)cc3s2)cc1` [Example 4, 2-(4-nitrophenyl)-6-hydroxybenzothiophene] as the molecule, how does the Ki read?
Answer: Its Ki is 1.07 nM.

Question: For `COc1ccc2cc(-c3ccc(N)cc3)sc2c1` [Example 8, 2-(4-aminophenyl)-6-methoxybenzothiophene], which Ki is on record?
Answer: The Ki was 0.51 nM.

Question: Which Ki does the source give for `Nc1ccc(-c2cc3ccc(OCCF)cc3s2)cc1` [Example 9, 2-(4-aminophenyl)-6-(2-fluoroethoxy)benzothiophene] here?
Answer: The Ki was 0.38 nM.

Question: With `Nc1ccc(-c2cc3ccc(OCCCF)cc3s2)cc1` [Example 10, 2-(4-aminophenyl)-6-(3-fluoropropoxy)benzothiophene] as the molecule, how does the Ki read?
Answer: The Ki was 0.64 nM.

Question: For `CNc1ccc(-c2cc3ccc(OC)cc3s2)cc1` [Example 11, 2-[4-(N-monomethylamino)phenyl]-6-methoxybenzothiophene], which Ki is on record?
Answer: The Ki was 0.43 nM.

Question: For `CNc1ccc(-c2cc3ccc(OCCF)cc3s2)cc1` [Example 12, 2-[4-(N-monomethylamino)phenyl]-6-(2-fluoroethoxy)benzothiophene], which Ki is on record?
Answer: The Ki was 0.064 nM.

Question: For `CNc1ccc(-c2cc3ccc(OCCCF)cc3s2)cc1` [Example 13, 2-[4-(N-monomethylamino)phenyl]-6-(3-fluoropropoxy)benzothiophene], which Ki is on record?
Answer: Its Ki is 0.27 nM.

Question: For `COc1cccc2sc(-c3ccc(N(C)C)cc3)cc12` [Example 14, 2-[4-(N,N-dimethylamino)phenyl]-4-methoxybenzothiophene], which Ki is on record?
Answer: The Ki was 0.77 nM.

Question: With `COc1ccc2cc(-c3ccc(N(C)C)cc3)sc2c1` [Example 15, 2-[4-(N,N-dimethylamino)phenyl]-6-methoxybenzothiophene] as the molecule, how does the Ki read?
Answer: The Ki was 1.58 nM.

Question: With `CN(C)c1ccc(-c2cc3ccc(OCCF)cc3s2)cc1` [Example 16, 2-[4-(N,N-dimethylamino)phenyl]-6-(2-fluoroethoxy)benzothiophene] as the molecule, how does the Ki read?
Answer: Its Ki is 0.079 nM.

Question: For `CN(C)c1ccc(-c2cc3ccc(OCCCF)cc3s2)cc1` [Example 17, 2-[4-(N,N-dimethylamino)phenyl]-6-(3-fluoropropoxy)benzothiophene], which Ki is on record?
Answer: The Ki was 7.41 nM.

Question: Which Ki does the source give for `COc1ccc2cc(-c3ccc(OCCF)nc3)sc2c1` [Example 18, 2-[2-(2-fluoroethoxy)pyridine-5-yl]-6-methoxybenzothiophene] here?
Answer: Its Ki is 0.09 nM.

Question: With `COc1ccc2cc(-c3ccc(OCCCF)nc3)sc2c1` [Example 19, 2-[2-(3-fluoropropoxy)pyridine-5-yl]-6-methoxybenzothiophene] as the molecule, how does the Ki read?
Answer: Its Ki is 0.39 nM.

Question: For `COc1ccc(-c2cc3ccc(OCCF)cc3s2)cn1` [Example 20, 2-(2-methoxypyridine-5-yl)-6-(2-fluoroethoxy)benzothiophene], which Ki is on record?
Answer: Its Ki is 1.32 nM.

Question: Which Ki does the source give for `Nc1ccc(-c2cc3ccc(OCCF)cc3s2)cn1` [Example 21, 2-(2-aminopyridine-5-yl)-6-(2-fluoroethoxy)benzothiophene] here?
Answer: Its Ki is 1.11 nM.

Question: For `CNc1ccc(-c2cc3ccc(OCCF)cc3s2)cn1` [Example 22, 2-[2-(N-monomethylamino)pyridine-5-yl]-6-(2-fluoroethoxy)benzothiophene], which Ki is on record?
Answer: The Ki was 0.46 nM.

Question: With `CN(C)c1ccc(-c2cc3ccc(OCCF)cc3s2)cn1` [Example 23, 2-[2-(N,N-dimethylamino)pyridine-5-yl]-6-(2-fluoroethoxy)benzothiophene] as the molecule, how does the Ki read?
Answer: Its Ki is 0.72 nM.

Question: With `Nc1ccc(-c2cc3ccc(OCCCF)cc3s2)cn1` [Example 24, 2-(2-aminopyridine-5-yl)-6-(3-fluoropropoxy)benzothiophene] as the molecule, how does the Ki read?
Answer: The Ki was 1.18 nM.

Question: With `CNc1ccc(-c2cc3ccc(OCCCF)cc3s2)cn1` [Example 25, 2-[2-(N-monomethylamino)pyridine-5-yl]-6-(3-fluoropropoxy)benzothiophene] as the molecule, how does the Ki read?
Answer: Its Ki is 0.06 nM.

Question: With `CN(C)c1ccc(-c2cc3ccc(OCCCF)cc3s2)cn1` [Example 26, 2-[2-(N,N-dimethylamino)pyridine-5-yl]-6-(3-fluoropropoxy)benzothiophene] as the molecule, how does the Ki read?
Answer: Its Ki is 0.09 nM.

Question: For `COc1ccc2cc(-c3ccnc(OCCF)c3)sc2c1` [Example 27, 2-[2-(2-fluoroethoxy)pyridine-4-yl]-6-methoxybenzothiophene], which Ki is on record?
Answer: The Ki was 0.83 nM.

Question: Which Ki does the source give for `COc1ccc2cc(-c3ccnc(OCCCF)c3)sc2c1` [Example 28, 2-[2-(3-fluoropropoxy)pyridine-4-yl]-6-methoxybenzothiophene] here?
Answer: Its Ki is 0.1 nM.

Question: Which Ki does the source give for `COc1cc(-c2cc3ccc(OCCCF)cc3s2)ccn1` [Example 30, 2-(2-methoxypyridine-4-yl)-6-(3-fluoropropoxy)benzothiophene] here?
Answer: Its Ki is 0.79 nM.

Question: With `COc1ccc2cc(-c3ccnc(OCCF)n3)sc2c1` [Example 31, 2-[2-(2-fluoroethoxy)pyrimidine-4-yl]-6-methoxybenzothiophene] as the molecule, how does the Ki read?
Answer: The Ki was 0.61 nM.

Question: Which Ki does the source give for `COc1ccc2cc(-c3ccnc(OCCCF)n3)sc2c1` [Example 32, 2-[2-(3-fluoropropoxy)pyrimidine-4-yl]-6-methoxybenzothiophene] here?
Answer: Its Ki is 0.46 nM.

Question: Which Ki does the source give for `COc1ccc2cc(-c3ccnc(NCCF)n3)sc2c1` [Example 33, 2-[2-(N-(2-fluoroethyl)amino)pyrimidine-4-yl]-6-methoxybenzothiophene] here?
Answer: The Ki was 0.53 nM.

Question: Which Ki does the source give for `COc1nccc(-c2cc3ccc(OCCF)cc3s2)n1` [Example 34, 2-(2-methoxypyrimidine-4-yl)-6-(2-fluoroethoxy)benzothiophene] here?
Answer: The Ki was 0.47 nM.

Question: Which Ki does the source give for `CNc1nccc(-c2cc3ccc(OCCF)cc3s2)n1` [Example 35, 2-[2-(N-monomethylamino)pyrimidine-4-yl]-6-(2-fluoroethoxy)benzothiophene] here?
Answer: The Ki was 0.55 nM.

Question: Which Ki does the source give for `COc1nccc(-c2cc3ccc(OCCCF)cc3s2)n1` [Example 37, 2-(2-methoxypyrimidine-4-yl)-6-(3-fluoropropoxy)benzothiophene] here?
Answer: The Ki was 0.44 nM.

Question: With `CNc1ccnc(-c2cc3ccc(OCCF)cc3s2)n1` [Example 41, 2-[4-(N-monomethylamino)pyrimidine-2-yl]-6-(2-fluoroethoxy)benzothiophene] as the molecule, how does the Ki read?
Answer: The Ki was 0.53 nM.

Question: For `CN(C)c1ccnc(-c2cc3ccc(OCCF)cc3s2)n1` [Example 42, 2-[4-(N,N-dimethylamino)pyrimidine-2-yl]-6-(2-fluoroethoxy)benzothiophene], which Ki is on record?
Answer: The Ki was 0.25 nM.

Question: For `CNc1ccnc(-c2cc3ccc(OCCCF)cc3s2)n1` [Example 43, 2-[4-(N-monomethylamino)pyrimidine-2-yl]-6-(3-fluoropropoxy)benzothiophene], which Ki is on record?
Answer: Its Ki is 0.37 nM.

Question: With `COc1ccc2cc(-c3ccc(OCCF)nn3)sc2c1` [Example 44, 2-[3-(2-fluoroethoxy)pyridazine-6-yl]-6-methoxybenzothiophene] as the molecule, how does the Ki read?
Answer: The Ki was 0.065 nM.

Question: For `COc1ccc2cc(-c3ccc(OCCCF)nn3)sc2c1` [Example 45, 2-[3-(3-fluoropropoxy)pyridazine-6-yl]-6-methoxybenzothiophene], which Ki is on record?
Answer: Its Ki is 1 nM.

Question: Which Ki does the source give for `Nc1ccc(-c2cc3ccc(OCCF)cc3s2)nn1` [Example 47, 2-(3-aminopyridazine-6-yl)-6-(2-fluoroethoxy)benzothiophene] here?
Answer: The Ki was 0.44 nM.

Question: Which Ki does the source give for `CNc1ccc(-c2cc3ccc(OCCF)cc3s2)nn1` [Example 48, 2-[3-(N-monomethylamino)pyridazine-6-yl]-6-(2-fluoroethoxy)benzothiophene] here?
Answer: Its Ki is 0.3 nM.

Question: For `CN(C)c1ccc(-c2cc3ccc(OCCF)cc3s2)nn1` [Example 49, 2-[3-(N,N-dimethylamino)pyridazine-6-yl]-6-(2-fluoroethoxy)benzothiophene], which Ki is on record?
Answer: The Ki was 0.43 nM.

Question: For `COc1ccc(-c2cc3ccc(OCCCF)cc3s2)nn1` [Example 50, 2-(3-methoxypyridazine-6-yl)-6-(3-fluoropropoxy)benzothiophene], which Ki is on record?
Answer: The Ki was 0.18 nM.

Question: With `Nc1ccc(-c2cc3ccc(OCCCF)cc3s2)nn1` [Example 51, 2-(3-aminopyridazine-6-yl)-6-(3-fluoropropoxy)benzothiophene] as the molecule, how does the Ki read?
Answer: Its Ki is 0.38 nM.

Question: With `CNc1ccc(-c2cc3ccc(OCCCF)cc3s2)nn1` [Example 52, 2-[3-(N-monomethylamino)pyridazine-6-yl]-6-(3-fluoropropoxy)benzothiophene] as the molecule, how does the Ki read?
Answer: The Ki was 0.55 nM.

Question: Which Ki does the source give for `CN(C)c1ccc(-c2cc3ccc(OCCCF)cc3s2)nn1` [Example 53, 2-[3-(N,N-dimethylamino)pyridazine-6-yl]-6-(3-fluoropropoxy)benzothiophene] here?
Answer: The Ki was 0.65 nM.

Question: For `COc1ccc2cc(-c3cncc(OCCCF)n3)sc2c1` [Example 55, 2-[2-(3-fluoropropoxy)pyrazine-6-yl]-6-methoxybenzothiophene], which Ki is on record?
Answer: Its Ki is 0.45 nM.

Tested on: not given
Assay: not given
Settings: not given

Question: For `O=[N+]([O-])c1ccc(-c2cc3ccc(O)cc3s2)cc1` [Example 4, 2-(4-nitrophenyl)-6-hydroxybenzothiophene], which melting point is on record?
Answer: Its melting point is 265 to 265.2 °C.

Question: With `Nc1ccc(-c2cc3ccc(OCCCF)cc3s2)cc1` [Example 10, 2-(4-aminophenyl)-6-(3-fluoropropoxy)benzothiophene] as the molecule, how does the melting point read?
Answer: The melting point was 119.6 to 123.2 °C.

Question: For `CNc1ccc(-c2cc3ccc(OCCF)cc3s2)cc1` [Example 12, 2-[4-(N-monomethylamino)phenyl]-6-(2-fluoroethoxy)benzothiophene], which melting point is on record?
Answer: The melting point was 156.9 to 159.7 °C.

Question: With `CNc1ccc(-c2cc3ccc(OCCCF)cc3s2)cc1` [Example 13, 2-[4-(N-monomethylamino)phenyl]-6-(3-fluoropropoxy)benzothiophene] as the molecule, how does the melting point read?
Answer: The melting point was 121.4 to 123.1 °C.

Question: With `CN(C)c1ccc(-c2cc3ccc(OCCF)cc3s2)cc1` [Example 16, 2-[4-(N,N-dimethylamino)phenyl]-6-(2-fluoroethoxy)benzothiophene] as the molecule, how does the melting point read?
Answer: Its melting point is 183.9 to 195.9 °C.

Question: For `CN(C)c1ccc(-c2cc3ccc(OCCCF)cc3s2)cc1` [Example 17, 2-[4-(N,N-dimethylamino)phenyl]-6-(3-fluoropropoxy)benzothiophene], which melting point is on record?
Answer: The melting point was 177.7 to 183 °C.
